Test results taken from patent publication US20230348364A1, “ISOTOPIC THYROMIMETIC COMPOUNDS” (Autobahn Therapeutics, Inc., priority 2020, published 2023).

What was measured:
TRβ = target: T1, TRβ (Homo sapiens, UniProt P10828); assay: Transactivation assay (DR4 TRE luciferase reporter, HEK 293), TRβ; assay type: cell-based; conditions: HEK 293 transfected with full length TRβ-CMV, 24 hours, firefly luciferase normalized to Renilla
T1 construct: TR expression vector (full length TRα-CMV or TRβ-CMV); expressed in transfected cells; host or cells: HEK 293
T1 sequence (P10828 1-461): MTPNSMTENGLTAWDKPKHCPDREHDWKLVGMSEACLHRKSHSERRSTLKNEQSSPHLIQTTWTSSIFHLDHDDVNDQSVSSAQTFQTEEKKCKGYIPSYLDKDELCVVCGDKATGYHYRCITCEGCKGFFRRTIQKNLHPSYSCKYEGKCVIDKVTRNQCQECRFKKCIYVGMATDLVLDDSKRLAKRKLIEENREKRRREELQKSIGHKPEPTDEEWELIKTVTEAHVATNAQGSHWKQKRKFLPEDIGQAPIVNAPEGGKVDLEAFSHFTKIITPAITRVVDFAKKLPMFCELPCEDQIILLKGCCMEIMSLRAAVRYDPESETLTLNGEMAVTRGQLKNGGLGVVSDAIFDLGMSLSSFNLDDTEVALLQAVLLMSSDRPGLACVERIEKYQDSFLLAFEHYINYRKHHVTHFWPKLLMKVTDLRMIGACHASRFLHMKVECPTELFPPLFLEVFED
Procedure: (§1) The cells were trypsinized with 0.25% trypsin, then diluted to 5×10^5 cells/mL with high glucose DMEM. […] 1.5 µg of TR expression vector (full length TRα-CMV or TRβ-CMV), 1.5 µg of a reporter plasmid containing a DR4 thyroid hormone response element (TRE) direct repeat spaced by four nucleotides (AGGTCAcaggAGGTCA) cloned upstream of a minimal thymidine kinase promoter linked to a firefly luciferase coding sequence, and 0.75 µg of a pRL-SV40 constitutive Renilla luciferase reporter plasmid were diluted into 540 µl of OptiMEM. 27 µL of lipofectamine reagent was diluted into 540 µL of OptiMEM. The plasmid and lipofectamine dilutions were combined then incubated at RT for 10 min. The mixture was then diluted into 4.29 mL of OptiMEM. Plates were washed with 100 µL of phosphate buffered saline (PBS) at pH 7.2 without magnesium or calcium chloride per well. Transfection mixtures were added at 50 µL per well, then incubated at 37° C. for 4 hours. Modified DME/F-12 Ham’s medium without phenol red containing 15 mM HEPES and bicarbonate, 5 mM L-glutamine, charcoal-stripped FBS, 50 units/mL penicillin and 50 µg/mL streptomycin was added at 50 µL per well, then the plates were incubated at 37° C. for 20 hours. Drug stocks were made at 10 mM in DMSO, then serially diluted to 1X concentrations in DME/F-12 Ham’s. Plates were washed with 100 µL of PBS (pH 7.2) per well. 100 µL of each drug stock was added to the wells in triplicate, and then the plates are incubated at 37° C. for 24 hours.
(§2) Cells were assayed for luciferase activity using the Promega DualGlo kit. 50 µl of Luciferase Reagent was added per well, the plate was rocked for 15 min at RT, and then the plate was read for firefly luciferase activity. A 50 µl volume of Stop & Glo Reagent was added per well, then the plate was read for Renilla luciferase activity.

TRα = target: T2, TRα (Homo sapiens, UniProt P10827); assay: Transactivation assay (DR4 TRE luciferase reporter, HEK 293), TRα; assay type: cell-based; conditions: HEK 293 transfected with full length TRα-CMV, 24 hours, firefly luciferase normalized to Renilla
T2 construct: TR expression vector (full length TRα-CMV or TRβ-CMV); expressed in transfected cells; host or cells: HEK 293
T2 sequence (P10827 1-410 isoform P10827-2): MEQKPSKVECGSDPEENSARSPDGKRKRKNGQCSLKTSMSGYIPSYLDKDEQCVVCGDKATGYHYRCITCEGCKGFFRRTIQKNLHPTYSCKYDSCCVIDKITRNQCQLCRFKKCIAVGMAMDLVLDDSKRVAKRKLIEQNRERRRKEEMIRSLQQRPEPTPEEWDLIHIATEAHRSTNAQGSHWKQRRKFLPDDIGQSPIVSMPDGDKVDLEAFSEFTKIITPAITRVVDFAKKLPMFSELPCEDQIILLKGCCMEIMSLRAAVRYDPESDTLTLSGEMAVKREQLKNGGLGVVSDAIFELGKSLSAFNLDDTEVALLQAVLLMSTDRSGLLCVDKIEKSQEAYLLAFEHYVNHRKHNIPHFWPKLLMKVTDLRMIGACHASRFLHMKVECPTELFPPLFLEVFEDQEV
Procedure: as §1, §2

[1] = target: T3, Purified recombinant human FAAH (rhFAAH) (Homo sapiens, UniProt O00519); assay: FAAH substrate evaluation (formation of acid metabolite); assay type: biochemical; conditions: 0.5 ng/µL rhFAAH, 1 µM test compound, Tris-EDTA buffer pH 8.0, room temperature, 0-60 minutes
T3 construct: purchased Cayman Chemical (Ann Arbor, MI, USA)
T3 sequence (O00519 1-579): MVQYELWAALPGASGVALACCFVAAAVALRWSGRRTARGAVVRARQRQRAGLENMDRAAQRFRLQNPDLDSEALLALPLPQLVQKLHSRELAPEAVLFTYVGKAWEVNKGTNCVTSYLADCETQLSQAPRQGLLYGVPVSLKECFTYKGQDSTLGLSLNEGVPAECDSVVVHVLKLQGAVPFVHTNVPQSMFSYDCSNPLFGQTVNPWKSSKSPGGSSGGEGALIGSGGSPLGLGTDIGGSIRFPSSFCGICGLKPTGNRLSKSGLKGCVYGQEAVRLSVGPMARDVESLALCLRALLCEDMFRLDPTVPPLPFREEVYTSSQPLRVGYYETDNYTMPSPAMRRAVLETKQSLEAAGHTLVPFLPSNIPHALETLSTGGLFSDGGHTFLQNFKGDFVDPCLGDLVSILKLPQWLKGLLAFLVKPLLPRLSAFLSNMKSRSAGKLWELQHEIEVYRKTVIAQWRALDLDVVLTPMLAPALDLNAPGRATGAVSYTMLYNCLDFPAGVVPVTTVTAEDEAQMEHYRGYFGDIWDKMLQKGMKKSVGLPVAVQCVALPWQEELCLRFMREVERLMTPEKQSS
Procedure: Purified recombinant human FAAH (rhFAAH) was purchased from Cayman Chemical (Ann Arbor, MI, USA). The total volume for each incubation was 400 µL containing a final 0.5 ng/µL rhFAAH, 1 µM test compound, 1.25% ethanol or 1 µM PF-3845 (FAAH inhibitor), and 0.1% bovine serum albumin in Tris-EDTA buffer at pH 8.0). The positive control was LL-341001. The incubation was conducted at the room temperature. At 0, 5, 15, 30 and 60 minutes, an aliquot of 30 µL reaction mixtures was removed and mixed with 300 µL acetonitrile containing 5 ng/mL terfenadine and 10 ng/mL tolbutamide as internal standards to quench the reaction. The resulting mixture was centrifuged at 4000 rpm, 4° C. for 15 minutes, and 100 µL supernatant was ready for LC-MS/MS analysis to measure the formation of acid metabolite.
Acquity Ultra Performance LC system from Waters was used for sample analysis. The chromatography was performed on a reverse phase Kinetex 2.6 µm C18 column, 2.1 × 30 mm, 100 Å. The mobile phase A comprised of 0.1% formic acid in water and mobile phase B comprised of 0.1% formic acid in acetonitrile with a 2-min run time at the flow rate of 0.8 mL/min for the acid metabolite from positive control or a 1.5 min run time at the flow rate of 0.9 mL/min for the acid metabolite of test compounds. The mass spectrometer (API-5500 and API Q Trap 4000 Applied Biosystems/MDS SCIEX Instruments, Framingham, MA, USA) was operated under ESI positive or negative ion MRM mode.
The formation of acid metabolite was monitored and quantified using one calibration point of 1 µM. The observed rate constant (ke) for the acid metabolite formation was calculated by plotting the metabolite concentration versus time of incubation with the slope being ke and is shown in Table 1.

EC50 (TRβ) [µM]	EC50 (TRα) [µM]	Compound	ke (observed rate constant for the acid metabolite formation) [1]
0.001 to 1	0.001 to 1	2-(3,5-dichloro-4-(hydroxy-3-(propan-2-yl-d7)benzyl)phenoxy)acetic Acid [Compound 18]	
		[2H]C([2H])([2H])C([2H])(c1cc(Cc2c(Cl)cc(OCC(=O)NC)cc2Cl)ccc1O)C([2H])([2H])[2H] [Compound 1, 2-(3,5-dichloro-4-(4-hydroxy-3-(propan-2-yl-d7)benzyl)phenoxy)-N-Methylacetamide]	A (A = ke is less than 3.0 and more than or equal to 0.1.)
0.001 to 1	0.001 to 1	[2H]C([2H])(c1ccc(O)c(C(C)C)c1)c1c(Cl)cc(OCC(=O)O)cc1Cl [Compound 4, 2-(3,5-dichloro-4-((4-hydroxy-3-isopropylphenyl)methyl-d2)phenoxy)acetic Acid]	
		[2H]C([2H])(c1ccc(O)c(C(C)C)c1)c1c(Cl)cc(OCC(N)=O)cc1Cl [Compound 5, 2-(3,5-dichloro-4-((4-hydroxy-3-isopropylphenyl)methyl-d2)phenoxy)acetamide]	A (A = ke is less than 3.0 and more than or equal to 0.1.)
0.001 to 1	0.001 to 1	[2H]c1c(Cl)c(Cc2ccc(O)c(C(C)C)c2)c(Cl)c([2H])c1OCC(=O)O [Compound 6, 2-(3,5-dichloro-4-(4-hydroxy-3-isopropylbenzyl)phenoxy-2,6-d2)acetic Acid]	
		[2H]c1c(Cl)c(Cc2ccc(O)c(C(C)C)c2)c(Cl)c([2H])c1OCC(N)=O [Compound 7, 2-(3,5-dichloro-4-(4-hydroxy-3-isopropylbenzyl)phenoxy-2,6-d2)acetamide]	A (A = ke is less than 3.0 and more than or equal to 0.1.)
0.001 to 1	0.001 to 1	[2H]C([2H])(Oc1cc(Cl)c(Cc2ccc(O)c(C(C)C)c2)c(Cl)c1)C(=O)O [Compound 8, 2-(3,5-dichloro-4-(4-hydroxy-3-isopropylbenzyl)phenoxy)acetic-2,2-d2 Acid]	
		[2H]C([2H])(Oc1cc(Cl)c(Cc2ccc(O)c(C(C)C)c2)c(Cl)c1)C(N)=O [Compound 9, 2-(3,5-dichloro-4-(4-hydroxy-3-isopropylbenzyl)phenoxy)acetamide-2,2-d2]	A (A = ke is less than 3.0 and more than or equal to 0.1.)
		[2H]C([2H])(c1ccc(O)c(C(C)C)c1)c1c(C)cc(OCC(=O)NC)cc1C [Compound 13, 2-(4-((4-hydroxy-3-isopropylphenyl)methyl-d2)-3,5-dimethylphenoxy)-N-methylacetamide]	A (A = ke is less than 3.0 and more than or equal to 0.1.)
		[2H]C([2H])(Oc1cc(C)c(Cc2ccc(O)c(C(C)C)c2)c(C)c1)C(=O)NC [Compound 17, 2-(4-(4-hydroxy-3-isopropylbenzyl)-3,5-dimethylphenoxy)-N-methylacetamide-2,2-d2]	A (A = ke is less than 3.0 and more than or equal to 0.1.)
0.001 to 1	0.001 to 1	[2H]C([2H])([2H])C([2H])(c1cc(Cc2c(Cl)cc(OCC(=O)O)cc2Cl)ccc1O)C([2H])([2H])[2H] [Compound A-15]	
